Experimental data taken from ChEMBL document CHEMBL5579843, “Multimechanism biological profiling of tetrahydro-β-carboline analogues as selective HDAC6 inhibitors for the treatment of Alzheimer's disease” (Eur J Med Chem, 2024).
Activity calls are given as the source filed them. The rule behind the calls is not given here.

What was measured:
[1] = Neurotoxicity against rat PC-12 cells assessed as reduction in cell viability at 10 uM measured after 24 hrs by MTT assay; type: toxicity, cell-based; details: pc-12, 24 h
[2] = Neurotoxicity against human SH-SY5Y cells assessed as reduction in cell viability at 10 uM measured after 24 hrs by MTT assay; type: toxicity, cell-based
[3] = Antioxidant activity assessed as ABTS radical scavenging activity measured after 30 mins by absorbance based analysis; type: functional
[4] = Antioxidant activity assessed as DPPH scavenging activity incubated for 0.5 hrs by absorbance based assay; type: functional
[5] = biological target: Histone deacetylase 1 (Homo sapiens, UniProt Q13547); assay: Inhibition of HDAC1 (unknown origin)
[6] = biological target: T1, Protein deacetylase HDAC6 (Homo sapiens, UniProt Q9UBN7); assay: Inhibition of HDAC6 (unknown origin)
T1 sequence (Q9UBN7 whole entry): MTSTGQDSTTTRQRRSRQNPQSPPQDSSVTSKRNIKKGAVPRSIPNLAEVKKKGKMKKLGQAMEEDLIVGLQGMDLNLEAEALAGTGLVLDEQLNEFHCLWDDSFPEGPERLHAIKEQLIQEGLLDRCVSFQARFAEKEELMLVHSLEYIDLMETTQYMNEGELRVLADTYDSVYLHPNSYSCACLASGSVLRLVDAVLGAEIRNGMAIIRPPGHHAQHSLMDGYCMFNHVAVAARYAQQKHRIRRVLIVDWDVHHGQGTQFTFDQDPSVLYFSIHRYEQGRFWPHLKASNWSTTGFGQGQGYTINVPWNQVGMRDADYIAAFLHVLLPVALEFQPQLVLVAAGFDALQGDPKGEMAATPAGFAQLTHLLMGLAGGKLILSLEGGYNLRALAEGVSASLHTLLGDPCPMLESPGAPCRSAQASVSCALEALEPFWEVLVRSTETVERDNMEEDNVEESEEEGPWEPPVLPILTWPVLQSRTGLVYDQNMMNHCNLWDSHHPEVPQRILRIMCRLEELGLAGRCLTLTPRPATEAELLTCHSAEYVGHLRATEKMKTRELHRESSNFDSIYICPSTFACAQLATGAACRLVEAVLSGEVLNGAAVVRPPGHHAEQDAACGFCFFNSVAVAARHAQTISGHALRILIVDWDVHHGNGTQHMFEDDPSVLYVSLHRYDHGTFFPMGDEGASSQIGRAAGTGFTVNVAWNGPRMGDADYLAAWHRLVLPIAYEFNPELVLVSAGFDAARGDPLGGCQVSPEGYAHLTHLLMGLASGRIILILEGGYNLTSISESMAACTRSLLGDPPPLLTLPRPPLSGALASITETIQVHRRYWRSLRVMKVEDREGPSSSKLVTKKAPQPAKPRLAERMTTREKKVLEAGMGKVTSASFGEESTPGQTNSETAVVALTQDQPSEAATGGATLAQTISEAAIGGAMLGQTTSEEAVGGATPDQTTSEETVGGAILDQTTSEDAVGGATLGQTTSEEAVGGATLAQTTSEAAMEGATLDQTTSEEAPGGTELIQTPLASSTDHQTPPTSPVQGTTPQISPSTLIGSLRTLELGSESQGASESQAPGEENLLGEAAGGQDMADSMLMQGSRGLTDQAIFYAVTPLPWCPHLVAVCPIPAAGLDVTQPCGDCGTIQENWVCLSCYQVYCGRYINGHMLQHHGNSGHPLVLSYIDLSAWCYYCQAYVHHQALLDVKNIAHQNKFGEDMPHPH

[7] = system: SH-SY5Y; assay: Neuroprotective activity against H2O2-induced oxidative damage in human SH-SY5Y cells assessed as increase in cell survival pretreated for 4 hrs followed by 200 uM H2O2 stimulation and measured after 24 hrs by MTT assay; type: functional, cell-based; details: dose 1-10 µM, time 28.0 hrs
[8] = system: PC-12; assay: Neuroprotective activity against H2O2-induced oxidative damage in rat PC-12 cells assessed as SOD activity at 10 uM pretreated for 4 hrs followed by H2O2 stimulation and measured after 24 hrs by WST-8 assay; type: functional; details: time 28 hrs
[9] = system: PC-12; assay: Neuroprotective activity against H2O2-induced oxidative damage in rat PC-12 cells assessed as increase in catalase protein expression at 10 uM pretreated for 4 hrs followed by H2O2 stimulation and measured after 24 hrs by Western blot analysis; type: functional, cell-based; details: time 28.0 hrs
[10] = system: PC-12; assay: Neuroprotective activity against H2O2-induced oxidative damage in rat PC-12 cells assessed as increase in cell survival pretreated for 4 hrs followed by 800 uM H2O2 stimulation and measured after 24 hrs by MTT assay; type: functional, cell-based; details: dose 1-10 µM, time 28.0 hrs
[11] = system: PC-12; assay: Neuroprotective activity against H2O2-induced oxidative damage in rat PC-12 cells assessed as increase in Nrf2 protein expression at 10 uM pretreated for 4 hrs followed by H2O2 stimulation and measured after 24 hrs by Western blot analysis; type: functional, cell-based; details: time 28.0 hrs
[12] = system: PC-12; assay: Neuroprotective activity against 6-OHDA-induced oxidative damage in rat PC-12 cells assessed as increase in cell survival at 1 to 10 uM pretreated for 4 hrs followed by 500 uM 6-OHDA stimulation and measured after 24 hrs by MTT assay; type: functional, cell-based; details: dose 1-10 µM, time 28.0 hrs
[13] = system: SH-SY5Y; assay: Neuroprotective activity against 6-OHDA-induced oxidative damage in human SH-SY5Y cells assessed as increase in cell survival at 1 to 10 uM pretreated for 4 hrs followed by 100 uM 6-OHDA stimulation and measured after 24 hrs by MTT assay; type: functional, cell-based; details: dose 1-10 µM, time 28.0 hrs
[14] = system: PC-12; assay: Neuroprotective activity against H2O2-induced oxidative damage in rat PC-12 cells assessed as increase in cell survival at 10 uM pretreated for 4 hrs followed by 800 uM H2O2 stimulation and measured after 24 hrs by MTT assay; type: functional, cell-based; details: time 28.0 hrs
[15] = system: SH-SY5Y; assay: Neuroprotective activity against H2O2-induced oxidative damage in human SH-SY5Y cells assessed as increase in cell survival at 10 uM pretreated for 4 hrs followed by 200 uM H2O2 stimulation and measured after 24 hrs by MTT assay; type: functional, cell-based; details: time 28.0 hrs
[16] = species on record: Danio rerio; assay: Cognitive improvement ability in scopolamine induced zebrafish alzheimer disease model assessed as improvement in motor activity by measuring increase in total distance of swimming at 20 mg/L pretreated with scopolamine for 30 mins followed by compound addition for 3 mins by T-maze test; type: functional, organism-based
[17] = Neurotoxicity against rat PC-12 cells assessed as cell survival rate at 10 uM measured after 24 hrs by MTT assay relative to control; type: toxicity, cell-based; details: read-out: Survival
[18] = Neurotoxicity against human SH-SY5Y cells assessed as cell survival rate at 10 uM measured after 24 hrs by MTT assay relative to control; type: toxicity, cell-based; details: read-out: Survival

Sequence of Histone deacetylase 1 (Q13547 whole entry): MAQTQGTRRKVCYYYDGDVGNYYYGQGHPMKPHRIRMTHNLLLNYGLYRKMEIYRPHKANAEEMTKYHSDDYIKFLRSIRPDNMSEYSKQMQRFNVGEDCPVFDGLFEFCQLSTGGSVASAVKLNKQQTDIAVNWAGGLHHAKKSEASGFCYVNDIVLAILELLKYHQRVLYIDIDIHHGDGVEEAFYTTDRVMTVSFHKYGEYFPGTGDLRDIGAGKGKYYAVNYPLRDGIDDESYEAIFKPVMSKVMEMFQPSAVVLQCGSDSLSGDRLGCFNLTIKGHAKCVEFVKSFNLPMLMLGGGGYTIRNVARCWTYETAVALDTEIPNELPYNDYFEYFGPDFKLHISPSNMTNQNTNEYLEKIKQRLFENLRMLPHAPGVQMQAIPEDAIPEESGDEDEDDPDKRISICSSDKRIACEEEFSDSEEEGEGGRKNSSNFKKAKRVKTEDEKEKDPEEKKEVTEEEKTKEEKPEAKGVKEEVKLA

## O=C(/C=C/c1ccc(CN2CCc3[nH]c4ccccc4c3C2)cc1)NO
[1]
  Activity: Toxic
[2]
  Activity: Toxic

## COc1ccc2[nH]c3c(c2c1)CCN(Cc1ccc(C(=O)NO)cc1)C3
[3]
  IC50: 12.6 µM
[4]
  IC50: 29.1 µM
[5]
  IC50: 23.7 µM
[6]
  IC50: 0.0164 µM

## O=C(NO)c1ccc(CN2CCc3[nH]c4ccccc4c3C2)cc1
[3]
  IC50: 17.2 µM
[4]
  IC50: 26.5 µM

## CN1CCc2c(c3ccccc3n2Cc2ccc(C(=O)NO)cc2)C1 [TUBASTATIN A]
[3]
  IC50: 12.1 µM
[7]
  Activity: Dose-Dependent Effect
[4]
  IC50: 28.2 µM
[8]
  Activity: 13.7 U/mg
[9]
  Activity: Active
[10]
  Activity: Dose-Dependent Effect
[11]
  Activity: Active
[12]
  Activity: Active
[13]
  Activity: Active

## Cc1ccc2[nH]c3c(c2c1)CN(Cc1ccc(C(=O)NO)cc1)CC3
[3]
  IC50: 9.97 µM
[4]
  IC50: 28.2 µM

## O=C(CCCCCC(=O)N1CCc2c([nH]c3ccccc23)C1)NO
[3]
  IC50: 14.4 µM
[4]
  IC50: 28.4 µM
[14]
  Activity: inactive
[15]
  Activity: inactive

## O=C(NO)c1ccc(CC(=O)N2CCc3c([nH]c4ccccc34)C2)cc1
[3]
  IC50: 13.8 µM
[4]
  IC50: 30.3 µM
[14]
  Activity: inactive
[15]
  Activity: inactive

## O=C(NO)c1ccc(C2NCCc3c2[nH]c2ccccc32)cc1 (centres undefined)
[6]
  IC50: > 1 µM

## O=C(NO)c1ccc(C2c3[nH]c4ccccc4c3CCN2Cc2ccccc2)cc1 (centres undefined)
[6]
  IC50: > 1 µM

## O=C(NO)c1ccc(CNC(=O)[C@@H]2Cc3c([nH]c4ccccc34)[C@@H](c3ccc(Cl)cc3)N2CC2CC2)cc1
[5]
  IC50: 0.494 µM

## O=C1O[C@H]([C@@H](O)CO)C(O)=C1O [ASCORBIC ACID]
[3]
  IC50: 25.5 µM
[4]
  IC50: 23.8 µM

## COc1ccc2[nH]c3c(c2c1)CCN(Cc1ccc(/C=C/C(=O)NO)cc1)C3
[5]
  IC50: 0.0108 µM
[1]
  Activity: Toxic
[6]
  IC50: 0.0197 µM
[2]
  Activity: Toxic

## COc1ccc2c3c1O[C@H]1C[C@@H](O)C=C[C@@]31CCN(C)C2
[16]
  Activity: Active

## O=C(CCCCCCC(=O)N1CCc2c([nH]c3ccccc23)C1)NO
[1]
  Activity: Toxic
[2]
  Activity: Toxic

## O=C(NO)c1ccc(CN2CCc3c([nH]c4ccccc34)C2)cc1
[3]
  IC50: 11.4 µM
[4]
  IC50: 35.6 µM
[5]
  IC50: 16.5 µM
[6]
  IC50: 0.0138 µM

## O=C(NO)c1cccc(CN2CCc3[nH]c4ccccc4c3C2)c1
[3]
  IC50: 16.9 µM
[4]
  IC50: 24.3 µM

## O=C(CCCCCCC(=O)Nc1ccccc1)NO [VORINOSTAT]
[17]
  viability at 24 h, 10 µM: < 80%
[18]
  viability at 24 h, 10 µM: < 80%

## O=C(NO)c1ccc(CN2CCc3[nH]c4ccc(F)cc4c3C2)cc1
[3]
  IC50: 9.96 µM
[4]
  IC50: 21 µM
